Laboratory results: ChEMBL document CHEMBL1140874, “Ligand-based and structure-based virtual screening to identify carbonic anhydrase IX inhibitors” (Bioorg Med Chem, 2009)

Columns and labels:
Carbonic anhydrase 9 = Carbonic anhydrase 9 (Homo sapiens, UniProt Q16790)
Carbonic anhydrase 2 = Carbonic anhydrase 2 (Homo sapiens, UniProt P00918)
Carbonic anhydrase 1 = Carbonic anhydrase 1 (Homo sapiens, UniProt P00915)
Carbonic anhydrase 1, sequence (P00915 whole entry): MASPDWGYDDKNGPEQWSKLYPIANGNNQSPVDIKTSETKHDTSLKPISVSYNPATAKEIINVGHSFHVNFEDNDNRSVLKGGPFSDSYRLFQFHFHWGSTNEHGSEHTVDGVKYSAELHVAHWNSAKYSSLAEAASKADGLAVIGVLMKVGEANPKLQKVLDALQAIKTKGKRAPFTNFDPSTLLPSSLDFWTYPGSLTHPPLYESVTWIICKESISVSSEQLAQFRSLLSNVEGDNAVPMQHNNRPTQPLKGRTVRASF

Ki (Carbonic anhydrase 9)	Ki (Carbonic anhydrase 2)	SMILES	Ki (Carbonic anhydrase 1)
1840 nM	2610 nM	NS(=O)(=O)c1ccc(CNC(=O)NC2CC2c2ccccc2)cc1 (centres undefined)	
290 nM		NS(=O)(=O)c1ccc(CCNC(=O)CN2C(=O)c3ccccc3C2=O)cc1	
1070 nM		NS(=O)(=O)c1ccc(CCNC(=O)c2sc3ccccc3c2Cl)cc1	
	380 nM	NS(=O)(=O)c1ccc(CCNC(=S)Nc2ccc(C(=O)O)cc2)cc1	
	643 nM	NS(=O)(=O)Oc1ccc(OS(N)(=O)=O)cc1	
300 nM		N#Cc1c(N)n(-c2cccc(S(N)(=O)=O)c2)c2nc3ccccc3nc12	
290 nM	100 nM	NS(=O)(=O)c1ccc(CNS(=O)(=O)c2ccc(F)cc2)cc1	

SMILES	Ki (Carbonic anhydrase 9)	Ki (Carbonic anhydrase 2)	Ki (Carbonic anhydrase 1)
CC1CCN(N(CCCC(=O)Nc2ccc(S(N)(=O)=O)cc2)N2CCC(C)CC2)CC1	90 nM	265 nM	
C=CCn1c(SCC(=O)Nc2ccc(S(N)(=O)=O)cc2)nc2sc3c(c2c1=O)CCCC3	2750 nM	330 nM	15 µM
